Laboratory results taken from paper PMC10004195, “Novel Dual-Target Kinase Inhibitors of EGFR and ALK Were Designed, Synthesized, and Induced Cell Apoptosis in Non-Small Cell Lung Cancer” (Molecules, 2023).
Read-outs that look alike come from different tables or passages of the source.

Key:
H2228 (EML4-ALK) cells = test: CCK8 antiproliferative assay, H2228 cells; format: cell-based, human; settings: read-out: IC50 H2228
Text: (§1) The human cancer cell lines (H1975, H2228) used in this study were purchased from the Guangzhou ginny ou biotechnology Co., Ltd. (Guangzhou, China). The human cancer cell lines (NCI-H522) used in this study were purchased from the Shenzhen Haodi Huatuo Biotechnology Co., LTD (Shenzhen, China). The human cancer cell lines (LOVO, HLF, BJ, LO2) used in this study were purchased from the Laboratory Animal Service Center at Sun Yat-sen University (Guangzhou, China). […] Cell lines LOVO, HLF, BJ, and LO2 were cultivated in DMEM containing 10% (v/v) heat-inactivated fetal bovine serum (FBS), 100 units/mL penicillin, and 100 μg/mL streptomycin.

H522 cells = test: CCK8 antiproliferative assay, H522 cells; format: cell-based; settings: Homo sapiens, NCI-H522, 72 h
Text: The human cancer cell lines (H1975, H2228) used in this study were purchased from the Guangzhou ginny ou biotechnology Co., Ltd. (Guangzhou, China). The human cancer cell lines (NCI-H522) used in this study were purchased from the Shenzhen Haodi Huatuo Biotechnology Co., LTD (Shenzhen, China). The human cancer cell lines (LOVO, HLF, BJ, LO2) used in this study were purchased from the Laboratory Animal Service Center at Sun Yat-sen University (Guangzhou, China). Cell lines were cultivated in 1640 containing 10% (v/v) heat-inactivated fetal bovine serum (FBS), 100 units/mL penicillin, and 100 μg/mL streptomycin. Cell lines LOVO, HLF, BJ, and LO2 were cultivated in DMEM containing 10% (v/v) heat-inactivated fetal bovine serum (FBS), 100 units/mL penicillin, and 100 μg/mL streptomycin.

[1] = test system: H1975 (EGFR T790M/L858R) cells; test: CCK8 antiproliferative assay, H1975 cells; format: cell-based, human
Text: as §1

[2] = test system: 293A (human embryonic kidney cells); test: Cytotoxicity test on nontumorigenic cells, 293A; format: cell-based; settings: Homo sapiens, 293A, read-out: Toxicity to normal cells, IC50 293A
Text: (§2) It is critical to evaluate the balance between the safety and efficacy of drugs for the development of new drugs; thus, we then conducted a cytotoxicity test on […] types of nontumorigenic cell lines from different origins, including LO2 (human normal liver cells), HK2 (human kidney proximal convoluted tubule epithelial cells), HLF (human embryonic lung fibroblast), 293A (human embryonic kidney cells), and HUVEC (human umbilical vein endothelial cells). […] In addition, we evaluated the compound’s safety in vivo by performing acute toxicity tests in mice, and 9j was injected intravenously at concentrations of 100 mg/kg, 150 mg/kg, and 300 mg/kg.
(§3) A total of 7000 cells per well were seeded in a 96-well plate with at least three technical replicates; then, exposed to different concentrations (10, 5, 1, 0.1, 0.05, 0.01 uM) of the test compounds for 72 h. After the treatment, CCK8 (Sigma, St. Louis, MO, USA) was added to each well under sterile conditions (to a final concentration of 10% of the total volume) and the plates were incubated for 2–4 h at 37 °C. Absorbance was measured at 450 nm in a microplate reader.

[3] = test system: HUVEC (human umbilical vein endothelial cells); test: Cytotoxicity test on nontumorigenic cells, HUVEC; format: cell-based; settings: Homo sapiens; HUVEC, mean ± SE; read-out: Toxicity to normal cells, IC50 HUVEC
Text: as §2, §3

[4] = test system: LO2 (human normal liver cells); test: Cytotoxicity test on nontumorigenic cells, LO2; format: cell-based; settings: Homo sapiens; LO2, mean ± SE; read-out: Toxicity to normal cells, IC50 LO2
Text: as §2, §3

[5] = test system: HK2 (human kidney proximal convoluted tubule epithelial cells); test: Cytotoxicity test on nontumorigenic cells, HK2; format: cell-based; settings: Homo sapiens, Epithelial cell; HK2, mean ± SE; read-out: Toxicity to normal cells, IC50 HK2
Text: as §2, §3

[6] = test system: HLF (human embryonic lung fibroblast); test: Cytotoxicity test on nontumorigenic cells, HLF; format: cell-based; settings: Homo sapiens, Fibroblast, read-out: Toxicity to normal cells, IC50 HLF
Text: as §2, §3

[7] = Homo sapiens, NCI-H2228, 72 h, CCK8 assay, 72 h, H2228 (EML4-ALK)
[8] = CCK8 assay, 72 h, H1975 (EGFR T790M/L858R), read-out: IC50 H1975
[9] = Homo sapiens, NCI-H1975, 72 h, CCK8 assay, 72 h, H1975 (EGFR T790M/L858R), read-out: IC50 H1975

SMILES | IC50 (H2228 (EML4-ALK) cells; [7]) [nM] | IC50 (H522 cells) [nM] | IC50 [1, 9] [nM] | further results
C=CC(=O)Nc1cc(Nc2ncc(Cl)c(Nc3ccccc3[S+]([O-])CC3CC3)n2)c(OC)cc1C1CCN(C)CC1 (stereo not shown) [9b, N-(5-((5-Chloro-4-((2-((cyclopropylmethyl)sulfinyl)phenyl)amino)pyrimidin-2-yl)amino)-4-methoxy-2-(1-methylpiperidin-4-yl)phenyl)acrylamide] | 98.9 | > 10000 | 68.9 | IC50 (H2228 (EML4-ALK) cells; CCK8 assay, 72 h, H2228 (EML4-ALK)): 99 ± 7 nM; IC50 [1, 8]: 69 ± 7 nM
C=CC(=O)Nc1cc(Nc2ncc(Cl)c(Nc3ccc(Cl)cc3[S+]([O-])CC3CC3)n2)c(OC)cc1C1CCN(C)CC1 (stereo not shown) [9d, N-(5-((5-Chloro-4-((4-chloro-2-((cyclopropylmethyl)sulfinyl)phenyl)amino)pyrimidin-2-yl)amino)-4-methoxy-2-(1-methylpiperidin-4-yl)phenyl)acrylamide] | 89 ± 30 | > 10000 | 114 ± 80 | 
C=CC(=O)Nc1cc(Nc2ncc(Cl)c(Nc3ccccc3[S+]([O-])C3CC3)n2)c(OC)cc1C1CCN(C)CC1 (stereo not shown) [9a, N-(5-((5-Chloro-4-((2-(cyclopropylsulfinyl)phenyl)amino)pyrimidin-2-yl)amino)-4-methoxy-2-(1-methylpiperidin-4-yl)phenyl)acrylamide] | 121 ± 90 | > 10000 | 451 ± 70 | 
C=CC(=O)Nc1cc(Nc2ncc(Cl)c(Nc3ccc(F)cc3[S+]([O-])CC)n2)c(OC)cc1C1CCN(C)CC1 (stereo not shown) [9f, N-(5-((5-Chloro-4-((2-(ethylsulfinyl)-4-fluorophenyl)amino)pyrimidin-2-yl)amino)-4-methoxy-2-(1-methylpiperidin-4-yl)phenyl)acrylamide] | 92.8 ± 60 | > 10000 | 550 ± 90 | 
C=CC(=O)Nc1cc(Nc2ncc(Cl)c(Nc3ccc(Cl)cc3[S+]([O-])CC)n2)c(OC)cc1C1CCN(C)CC1 (stereo not shown) [9g, N-(5-((5-Chloro-4-((4-chloro-2-(ethylsulfinyl)phenyl)amino)pyrimidin-2-yl)amino)-4-methoxy-2-(1-methylpiperidin-4-yl)phenyl)acrylamide] | 104 ± 50 | > 10000 | 69 ± 10 | 
Cc1cc(Nc2ncc(Cl)c(Nc3ccccc3S(=O)(=O)C(C)C)n2)c(OC(C)C)cc1C1CCNCC1 [Ceritinib, reference compound] | 22.1 ± 8 |  | 78.3 ± 30 | 
C=CC(=O)Nc1cc(Nc2ncc(Cl)c(Nc3ccc(F)cc3[S+]([O-])C(C)C)n2)c(OC)cc1C1CCN(C)CC1 (stereo not shown) [9i, N-(5-((5-Chloro-4-((4-fluoro-2-(isopropylsulfinyl)phenyl)amino)pyrimidin-2-yl)amino)-4-methoxy-2-(1-methylpiperidin-4-yl)phenyl)acrylamide] | 98.1 ± 60 | > 10000 | 309 ± 110 | 
C=CC(=O)Nc1cc(Nc2nccc(-c3cn(C)c4ccccc34)n2)c(OC)cc1N(C)CCN(C)C [Osimertinib, reference compound] |  |  |  | IC50 (H2228 (EML4-ALK) cells; Homo sapiens, NCI-H2228, 72 h): 2016 ± 8 nM; IC50 [2]: 2250 ± 20 nM; IC50 [3]: 4340 ± 10 nM; IC50 [4]: 1720 ± 50 nM; IC50 ([1]; Homo sapiens, NCI-H1975, 72 h, read-out: IC50 H1975): 4.1 ± 1 nM; IC50 ([1]; Homo sapiens, NCI-H1975, read-out: IC50 H1975 (Table 2)): 4.1 ± 1 nM; IC50 [5]: 2130 ± 90 nM; IC50 [6]: 3240 ± 80 nM
C=CC(=O)Nc1cc(Nc2ncc(Cl)c(Nc3ccccc3[S+]([O-])C(C)C)n2)c(OC)cc1C1CCN(C)CC1 (stereo not shown) [9h, N-(5-((5-Chloro-4-((2-(isopropylsulfinyl)phenyl)amino)pyrimidin-2-yl)amino)-4-methoxy-2-(1-methylpiperidin-4-yl)phenyl)acrylamide] | 76.6 ± 20 | > 10000 | 68.9 to 78.2 | IC50 [1, 8]: 83.9 ± 30 nM
C=CC(=O)Nc1cc(Nc2ncc(Cl)c(Nc3ccccc3[S+]([O-])CC)n2)c(OC)cc1C1CCN(C)CC1 (stereo not shown) [9e, N-(5-((5-Chloro-4-((2-(ethylsulfinyl)phenyl)amino)pyrimidin-2-yl)amino)-4-methoxy-2-(1-methylpiperidin-4-yl)phenyl)acrylamide] | 97.7 ± 50 | > 10000 | 170 ± 20 | 
C=CC(=O)Nc1cc(Nc2ncc(Cl)c(Nc3ccc(F)cc3[S+]([O-])CC3CC3)n2)c(OC)cc1C1CCN(C)CC1 (stereo not shown) [9c, N-(5-((5-Chloro-4-((2-((cyclopropylmethyl)sulfinyl)-4-fluorophenyl)amino)pyrimidin-2-yl)amino)-4-methoxy-2-(1-methylpiperidin-4-yl)phenyl)acrylamide] | 103 ± 70 | > 10000 | 271 ± 130 | 
